Test results from US9988381B2, “Five-member-heterocycle fused pyridine compounds, method of producing the same, and use thereof” (SHANGHAI INSTITUTE OF MATERIA MEDICA, CHINESE ACADEMY OF …, priority 2013, dated 2018).
Where two headings read alike, the source gives them in different places.

How the values were obtained:
[1] = target: T1, c-Met kinase domain recombinant protein (Homo sapiens, UniProt P08581); assay: biochemical; details: for inhibition at 0.1 µM: read-out: Average inhibition rate at 0.1 μM (%); for inhibition at 1 µM: read-out: Average inhibition rate at 1 μM (%); for inhibition at 10 µM: read-out: Average inhibition rate at 10 μM (%)
T1 construct: 50 μL diluted solution of c-Met kinase domain recombinant protein in reaction buffer was added to initiate the reaction
Outline: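 IC50 came from a four-parameter fit of inhibition rates measured by anti-phosphotyrosine (PY99/HRP) ELISA at 490 nm. The reaction ran 1 hour at 37° C with 5 μM ATP, c-Met kinase domain protein and Poly(Glu,Tyr)4:1-coated wells, in HEPES pH 7.4 buffer containing MgCl2, MnCl2, Na3VO4 and DTT.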

EBC-1 cell = assay: Test III: growth inhibition of non-small cell carcinoma EBC-1 cell (SRB); type: cell-based; details: Homo sapiens, EBC-1, 72 h; for inhibition at 0.2 µM: read-out: Cell proliferation inhibition rate at 200 nM (%); for inhibition at 1 µM: read-out: Cell proliferation inhibition rate at 1 μM (%)
Protocol: Assays on the growth inhibition of the compounds against gastric tumor cell MKN45, non-small cell carcinoma EBC-1 cell (both are MET persistent activated cell lines due to MET gene amplification, and are Met dependent tumor cell lines, MKN45 cell was purchased from JCRB, Japan, EBC-1 cell was purchased from ATCC, USA) were detected using sulforhodamine B (SRB) staining. […] After incubation with compound for 72 hours, the incubation was terminated, adherent cells were retained and medium was discarded, 10% (w/v) trichloroacetic acid (100 μL pre well) was added, the cells were fixed at 4° C. for 1 hour, then rinsed with distilled water for 5 times, after dried at room temperature, SRB solution (4 mg/mL, dissolved in 1% glacial acetic acid) was added at 100 μL per well, incubated and stained at room temperature for 15 minutes, then rinsed with 1% glacial acetic acid for 5 times to remove any unbound SRB, dried at room temperature, then 10 mM Tris solution was added at 100 μL per well, the optical density (OD) value at 515 nm was measured using VERSMax microplate reader.
Experiments were conducted in duplicates. IC50 value was calculated by fitting the data for a four parameter fit using inhibition curve, the results are shown below in Table 2.

[2] = target: T1, c-Met kinase domain recombinant protein; assay: biochemical; details: read-out: Inhibition rate at 10 μM (%)
Outline: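 Recombinant c-Met kinase domain phosphorylated immobilised Poly(Glu,Tyr)4:1 for 1 h at 37 °C in 50 mM HEPES pH 7.4, 50 mM MgCl2, 0.5 mM MnCl2, 0.2 mM Na3VO4, 1 mM DTT with ATP. Product measured by anti-phosphotyrosine PY99 ELISA (HRP, 490 nm), giving percent inhibition; ATP-free wells served as control.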

T1 sequence (P08581 1078-1345 limits assumed): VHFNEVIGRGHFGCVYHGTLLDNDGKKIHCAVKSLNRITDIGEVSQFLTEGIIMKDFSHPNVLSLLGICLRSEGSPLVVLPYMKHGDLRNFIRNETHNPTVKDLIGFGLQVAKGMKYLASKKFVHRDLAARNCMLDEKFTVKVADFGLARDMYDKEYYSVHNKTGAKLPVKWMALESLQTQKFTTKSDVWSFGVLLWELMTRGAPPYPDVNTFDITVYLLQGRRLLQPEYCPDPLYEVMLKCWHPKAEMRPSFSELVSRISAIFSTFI

| Compound | IC50 [1] [nM] | inhibition at 0.1 µM [1] [%] | inhibition at 1 µM [1] [%] | inhibition at 10 µM [2] [%] | inhibition at 10 µM [1] [%] | inhibition at 0.2 µM (EBC-1 cell) [%] | inhibition at 1 µM (EBC-1 cell) [%] |
| --- | --- | --- | --- | --- | --- | --- | --- |
| COc1ccc(-c2cnc3cnn(S(=O)(=O)c4cnc5ccc(O)cn45)c3c2)cc1 [Example 126, 1-[(6-hydroxy-imidazo[1,2-a]pyridine)-3-sulfonyl]-6-(4-methoxyphenyl)-1-H-pyrazolo[4,3-b]pyridine] | 7.3 ± 1.1 | 100 | 100 | – | – | 35.1 | 87 |
| Cn1cc(-c2ccc3ncc(S(=O)(=O)n4ncc5ncc(-c6ccccc6)cc54)n3c2)cn1 [Example 144, 1-{(6-[(1-methyl)-4-pyrazolyl]-imidazo[1,2-a]pyridine)-3-sulfonyl}-6-phenyl-1-H-pyrazolo[4,3-b]pyridine] | 0.3 ± 0.01 | 92.1 | 93.1 | – | – | 91.1 | 91.4 |
| O=S(=O)(c1cnc2ccc(-c3cn[nH]c3)cn12)n1ncc2ncc(-c3cn[nH]c3)cc21 [Example 104, 1-{[6-(4-pyrazolyl)-imidazo[1,2-a]pyridine]-3-sulfonyl}-6-(4-pyrazolyl)-1-H-pyrazolo[4,3-b]pyridine] | 2.1 ± 0.6 | 99.8 | 100 | – | – | 85.7 | 89.2 |
| Cn1cc(-c2ccc3ncc(S(=O)(=O)n4ncc5ncc(-c6cnn(C7CCN(C(=O)OC(C)(C)C)CC7)c6)cc54)n3c2)cn1 [Example 141, 1-{(6-[(1-methyl)-4-pyrazolyl]-imidazo[1,2-a]pyridine)-3-sulfonyl}-6-{{1-[(1-t-butoxycarbonyl)-4-piperidinyl]}-4-pyrazolyl}-1-H-pyrazolo[4,3-b]pyridine] | 0.3 ± 0.1 | 86.3 | 88.5 | – | – | 92.6 | 92.7 |
| CN(C)C(=O)c1ccc(-c2cnc3cnn(S(=O)(=O)c4cnc5ccccn45)c3c2)cc1 [Example 41, 1-(imidazo[1,2-a]pyridine-3-sulfonyl)-6-(4-dimethylaminocarbonylphenyl)-1-H-pyrazolo[4,3-b]pyridine] | – | 45.1 | 54.6 | 68.7 | 68.7 | – | – |
| Cn1cc(-c2cnc3cnn(S(=O)(=O)c4cnc5ccc(-c6ccc7c(c6)OCCO7)cn45)c3c2)cn1 [Example 93, 1-{[6-[6-(1,4-benzodioxanyl)]-imidazo[1,2-a]pyridine]-3-sulfonyl}-6-[(1-methyl)-4-pyrazolyl]-1-H-pyrazolo[4,3-b]pyridine] | – | 76.1 | 76.8 | > 64.5 | 77.9 | – | – |
| CC(C)(C)OC(=O)N1CCC(n2cc(-c3cnc4cnn(S(=O)(=O)c5cnc6ccc(-c7cnn(C8CCN(C(=O)OC(C)(C)C)CC8)c7)nn56)c4c3)cn2)CC1 [Example 62, 1-{(6-{{1-[(1-t-butoxycarbonyl)-4-piperidinyl]}-4-pyrazolyl}-imidazo[1,2-b]pyridazine)-3-sulfonyl}-6-{{1-[(1-t-butoxycarbonyl)-4-piperidinyl]}-4-pyrazolyl}-1-H-pyrazolo[4,3-b]pyridine] | – | 73.2 | 73.2 | 62.6 | 80 | – | – |
| Cc1noc(C)c1S(=O)(=O)n1ncc2ncc(-c3cnn(C)c3)cc21 [Compound 11, 1-(3,5-dimethylisoxazolesulfonyl)-6-[(1-methyl)-4-pyrazolyl]-1-H-pyrazolo[4,3-b]pyridine] | – | – | – | 48.6 | 48.6 | – | – |
| Cn1cc(-c2cnc3cnn(S(=O)(=O)c4cnc5ccc(-c6cc(F)c(F)c(F)c6)cn45)c3c2)cn1 [Example 88, 1-{[6-(3,4,5-trifluorophenyl)-imidazo[1,2-a]pyridine]-3-sulfonyl}-6-[(1-methyl)-4-pyrazolyl]-1-H-pyrazolo[4,3-b]pyridine] | – | 1.1 | 59.4 | > 70.2 | 64.5 | – | – |
| Cn1cc(-c2cnc3cnn(S(=O)(=O)c4ccc(F)cc4)c3c2)cn1 [Compound 7, 1-(4-fluorobenzenesulfonyl)-6-[(1-methyl)-4-pyrazolyl]-1-H-pyrazolo[4,3-b]pyridine] | – | – | – | 40.7 | 40.7 | – | – |
| O=S(=O)(c1cnc2ccccn12)n1ncc2ncc(-c3cccnc3)cc21 [Example 30, 1-(imidazo[1,2-a]pyridine-3-sulfonyl)-6-(3-pyridinyl)-1-H-pyrazolo[4,3-b]pyridine] | – | 48.3 | 59.7 | 71 | 71 | – | – |
| Cn1cc(-c2cnc3cnn(S(=O)(=O)c4cnc5ccc(-c6ccc(C(F)(F)F)cc6)cn45)c3c2)cn1 [Example 77, 1-{[6-(4-trifluoromethylphenyl)-imidazo[1,2-a]pyridine]-3-sulfonyl}-6-[(1-methyl)-4-pyrazolyl]-1-H-pyrazolo[4,3-b]pyridine] | – | 55.8 | 64.8 | > 76.9 | 85.5 | – | – |

Further lines, with some results ahead:

| IC50 [1] [nM] | inhibition at 0.1 µM [1] [%] | inhibition at 1 µM [1] [%] | inhibition at 10 µM [2] [%] | inhibition at 10 µM [1] [%] | Compound | inhibition at 0.2 µM (EBC-1 cell) [%] | inhibition at 1 µM (EBC-1 cell) [%] |
| --- | --- | --- | --- | --- | --- | --- | --- |
| 2.7 ± 0.5 | 99.6 | 101 | – | – | Cn1cc(-c2cnc3cnn(S(=O)(=O)c4cnc5ccc(OC(=O)c6ccco6)cn45)c3c2)cn1 [Example 129, 1-[(6-furan-2-acyloxy-imidazo[1,2-a]pyridine)-3-sulfonyl]-6-[(1-methyl)-4-pyrazolyl]-1-H-pyrazolo[4,3-b]pyridine] | 79 | 86.6 |
| 1.9 ± 0.1 | 104 | 101 | – | – | Cn1cc(-c2ccc3ncc(S(=O)(=O)n4ncc5ncc(-c6cn[nH]c6)cc54)n3c2)cn1 [Example 106, 1-{(6-[(1-methyl)-4-pyrazolyl]-imidazo[1,2-a]pyridine)-3-sulfonyl}-6-(4-pyrazolyl)-1-H-pyrazolo[4,3-b]pyridine] | 37 | 85.7 |
| – | 74.6 | 75.6 | > 77.3 | 83.1 | Cn1cc(-c2cnc3cnn(S(=O)(=O)c4cnc5ccc(-c6ccc(N7CCOCC7)cc6)cn45)c3c2)cn1 [Example 75, 1-{[6-(4-morpholinylphenyl)-imidazo[1,2-a]pyridine]-3-sulfonyl}-6-[(1-methyl)-4-pyrazolyl]-1-H-pyrazolo[4,3-b]pyridine] | – | – |
| – | 45.3 | 79.9 | > 71.7 | 83.4 | COc1ccc(-c2ccc3ncc(S(=O)(=O)n4ncc5ncc(-c6cnn(C)c6)cc54)n3c2)cc1 [Example 89, 1-{[6-(4-methoxyphenyl)-imidazo[1,2-a]pyridine]-3-sulfonyl}-6-[(1-methyl)-4-pyrazolyl]-1-H-pyrazolo[4,3-b]pyridine] | – | – |
| – | – | – | 44.1 | 44.1 | Cn1cc(-c2cnc3cnn(S(=O)(=O)c4ccccc4)c3c2)cn1 [Compound 4, 1-benzenesulfonyl-6-[(1-methyl)-4-pyrazolyl]-1-H-pyrazolo[4,3-b]pyridine] | – | – |
| 1.4 ± 0.1 | 50.6 | 66.8 | > 77.9 | 74.3 | Cn1cc(-c2cnc3cnn(S(=O)(=O)c4cnc5ccc(-c6ccc7c(c6)OCO7)cn45)c3c2)cn1 [Example 98, 1-{[6-[5-(1,2-methylenedioxyphenyl)]-imidazo[1,2-a]pyridine]-3-sulfonyl}-6-[(1-methyl)-4-pyrazolyl]-1-H-pyrazolo[4,3-b]pyridine] | – | – |
| – | – | 44.4 | > 79.8 | 77.7 | Cn1cc(-c2cnc3cnn(S(=O)(=O)c4cnc5ccc(-c6cccc(C(F)(F)F)c6)cn45)c3c2)cn1 [Example 83, 1-{[6-(3-trifluoromethylphenyl)-imidazo[1,2-a]pyridine]-3-sulfonyl}-6-[(1-methyl)-4-pyrazolyl]-1-H-pyrazolo[4,3-b]pyridine] | – | – |
| 0.7 ± 0.1 | 56.6 | 61.5 | > 71.8 | 68.3 | COc1ccc(-c2ccc3ncc(S(=O)(=O)n4ncc5ncc(-c6cnn(C)c6)cc54)n3c2)cc1OC [Example 96, 1-{[6-(3,4-dimethoxyphenyl)-imidazo[1,2-a]pyridine]-3-sulfonyl}-6-[(1-methyl)-4-pyrazolyl]-1-H-pyrazolo[4,3-b]pyridine] | – | – |
